Numbered stars: 1 amine (or outer) side, 2 acyl side, 3 side chain; on linkers, the order of the positions; unused ones are H or OH. Square brackets hold non-standard residues; d marks the D form. Peptide text beside a SMILES is read from it. X1 = NN([C@H](Cc1ccccc1)C(=O)[*:2])[*:1]; Orn(Nα-NH2) = NCCC[C@H](NN)C(=O)O; Orn = NCCC[C@H](N)C(=O)O
Key:
Assay type in all cases: cell-based
Acinetobacter baumannii = assay: MIC determination against ESKAPE pathogens (broth culture, 96-well, turbidity); conditions: Acinetobacter baumannii strain 5075; 37° C.
Method: (§1) The antimicrobial activity of the compounds disclosed herein was tested against a variety of bacteria. The bacterial strains comprised a panel of drug-resistant gram-positive and gram-negative bacteria known as ESKAPE pathogens. The minimum inhibitory concentration (MIC) for the compounds were determined as follows. Broth cultures of ESKAPE strains were grown overnight before being diluted 1 in 1000 in fresh media. Sterile 96-well plates were loaded with culture, and compounds (in DMSO) were added at decreasing concentrations to equal a total volume of 200 μL per well. Care was taken to not add more than 2.0% DMSO to any well. Plates were then incubated at 37° C., and MICs determined after 24 h by visual inspection for a lack of turbidity in wells. All assays were performed in triplicate with identical results obtained.

Enterobacter cloacae = assay: as above; conditions: Enterobacter cloacae strain 1454; 37° C.
Method: as §1

Enterococcus faecium = assay: as above; conditions: Enterococcus faecium strain 1450; 37° C.
Method: as §1

Pseudomonas aeruginosa = assay: as above; conditions: Pseudomonas aeruginosa strain 1419; 37° C.
Method: as §1

Staphylococcus aureus = assay: as above; conditions: Staphylococcus aureus strain 635; 37° C.
Method: as §1

[1] = tested on: Human red blood cells (hRBCs); assay: Hemolysis assay using whole human blood; conditions: for Hemolytic Activity (% Hemolysis): hRBCs, 15 min at 37° C., relative to 1.0% triton X-100
Method: Hemolytic Activity: The hemolytic activity of the compounds disclosed herein was also tested. A hemolysis assay was performed using whole human blood (Bioreclamation). […] Cells were incubated for 15 min at 37° C. before being centrifuged at 5500 g for 1 min to pellet nonlysed hRBCs. The supernatant was removed, added to a 96-well microtiter plate, and the OD543 was read using a Biotek synergy2 plate reader. The negative control was vehicle only (DMSO), and the positive control was 1.0% triton X-100.

gram-negative bacteria = assay: Antimicrobial activity, summary for gram-negative bacteria; conditions: compared to GS
Method: as §1

Row | SMILES | MC90 Results, Ab (−) (Acinetobacter baumannii) | MC90 Results, Ec (−) (Enterobacter cloacae) | MC90 Results, Ef (+) (Enterococcus faecium) | MC90 Results, Pa (−) (Pseudomonas aeruginosa) | MC90 Results, Sa (+) (Staphylococcus aureus) | Hemolytic Activity (% Hemolysis) ([1]; 6.25 μM) | Hemolytic Activity (% Hemolysis) ([1]; 12.5 μM) | Hemolytic Activity (% Hemolysis) ([1]; 25 μM) | Hemolytic Activity (% Hemolysis) ([1]; 50 μM) | activity against gram-negative bacteria (gram-negative bacteria) | toxicity to human cells compared to GS [1]
1 | CC(C)C[C@@H]1NC(=O)[C@H](CCCN)NC(=O)[C@H](C(C)C)NC(=O)[C@@H]2CCCN2C(=O)[C@@H](Cc2ccccc2)N(N)C(=O)[C@H](CC(C)C)NC(=O)[C@H](CCCN)NC(=O)[C@H](C(C)C)NC(=O)[C@@H]2CCCN2C(=O)[C@@H](Cc2ccccc2)NC1=O [Compound 1] (HELM PEPTIDE1{L.[dF].P.V.[Orn].L.[NN([C@H](Cc1ccccc1)C(=O)[*:2])[*:1]].P.V.[Orn]}$PEPTIDE1,PEPTIDE1,1:R1-10:R2$$$V2.0) | >50 µM | >50 µM | >50 µM | >50 µM | >50 µM | 0.00% | 0.00% | 0.00% | 0.00% |  | 
2 | CC(C)C[C@@H]1NC(=O)[C@H](CCCN)NC(=O)[C@H](C(C)C)NC(=O)[C@@H]2CCCN2C(=O)[C@@H](Cc2ccccc2)N(N)C(=O)[C@H](CC(C)C)NC(=O)[C@H](CCCN)NC(=O)[C@H](C(C)C)NC(=O)[C@@H]2CCCN2C(=O)[C@@H](Cc2ccccc2)N(N)C1=O [Compound 2] (HELM PEPTIDE1{L.[NN([C@H](Cc1ccccc1)C(=O)[*:2])[*:1]].P.V.[Orn].L.[NN([C@H](Cc1ccccc1)C(=O)[*:2])[*:1]].P.V.[Orn]}$PEPTIDE1,PEPTIDE1,1:R1-10:R2$$$V2.0) | 12.5 µM | >50 µM | 4 µM | 35 µM | 4 µM | 0.00% | 0.00% | 2.84% | 11.24% |  | 
3 | CC(C)C[C@@H]1NC(=O)[C@H](CCCN)NC(=O)[C@H](C(C)C)NC(=O)[C@@H]2CCCN2C(=O)[C@@H](Cc2ccccc2)NC(=O)[C@H](CC(C)C)NC(=O)[C@H](CCCN)N(N)C(=O)[C@H](C(C)C)NC(=O)[C@@H]2CCCN2C(=O)[C@@H](Cc2ccccc2)NC1=O [Compound 3] (HELM PEPTIDE1{L.[dF].P.V.[Orn].L.[dF].P.V.[NCCC[C@@H](C(=O)[*:2])N(N)[*:1]]}$PEPTIDE1,PEPTIDE1,1:R1-10:R2$$$V2.0) | 6.5 µM | 30 µM | 3 µM | 13 µM | 2 µM | 0.00% | 0.00% | 1.49% | 13.68% |  | 
4 | CC(C)C[C@@H]1NC(=O)[C@H](CCCN)N(N)C(=O)[C@H](C(C)C)NC(=O)[C@@H]2CCCN2C(=O)[C@@H](Cc2ccccc2)N(N)C(=O)[C@H](CC(C)C)NC(=O)[C@H](CCCN)NC(=O)[C@H](C(C)C)NC(=O)[C@@H]2CCCN2C(=O)[C@@H](Cc2ccccc2)NC1=O [Compound 4] (HELM PEPTIDE1{L.[dF].P.V.[Orn].L.[NN([C@H](Cc1ccccc1)C(=O)[*:2])[*:1]].P.V.[NCCC[C@@H](C(=O)[*:2])N(N)[*:1]]}$PEPTIDE1,PEPTIDE1,1:R1-10:R2$$$V2.0) | 6.5 µM | 30 µM | 3 µM | 15 µM | 2 µM | 0.00% | 0.00% | 1.98% | 14.00% |  | 
5 | CC(C)C[C@@H]1NC(=O)[C@H](CCCN)NC(=O)[C@H](C(C)C)NC(=O)[C@@H]2CCCN2C(=O)[C@@H](Cc2ccccc2)N(N)C(=O)[C@H](CC(C)C)NC(=O)[C@H](CCCN)N(N)C(=O)[C@H](C(C)C)NC(=O)[C@@H]2CCCN2C(=O)[C@@H](Cc2ccccc2)N(N)C1=O [Compound 5] (cyclo(L[X1]PV[Orn]L[X1]PV[Orn(Nα-NH2)])) |  |  |  |  |  | 0.21% | 0.00% | 2.82% | 17.93% |  | 
6 | CC(C)C[C@@H]1NC(=O)[C@H](CCCN)NC(=O)[C@H](C(C)C)NC(=O)[C@@H]2CCCN2C(=O)[C@@H](Cc2ccccc2)N(N)C(=O)[C@H](CC(C)C)NC(=O)[C@H](CCCN)N(N)C(=O)[C@H](C(C)C)NC(=O)[C@@H]2CCCN2C(=O)[C@@H](Cc2ccccc2)NC1=O [Compound 6] (HELM PEPTIDE1{L.[dF].P.V.[NCCC[C@@H](C(=O)[*:2])N(N)[*:1]].L.[NN([C@H](Cc1ccccc1)C(=O)[*:2])[*:1]].P.V.[Orn]}$PEPTIDE1,PEPTIDE1,1:R1-10:R2$$$V2.0) |  |  |  |  |  | 0.00% | 0.00% | 3.24% | 17.91% |  | 
7 | CC(C)C[C@@H]1NC(=O)[C@H](CCCN)N(N)C(=O)[C@H](C(C)C)NC(=O)[C@@H]2CCCN2C(=O)[C@@H](Cc2ccccc2)NC(=O)[C@H](CC(C)C)NC(=O)[C@H](CCCN)N(N)C(=O)[C@H](C(C)C)NC(=O)[C@@H]2CCCN2C(=O)[C@@H](Cc2ccccc2)NC1=O [Compound 7] (HELM PEPTIDE1{L.[dF].P.V.[NCCC[C@@H](C(=O)[*:2])N(N)[*:1]].L.[dF].P.V.[NCCC[C@@H](C(=O)[*:2])N(N)[*:1]]}$PEPTIDE1,PEPTIDE1,1:R1-10:R2$$$V2.0) | 4 µM | 20 µM | 2 µM | 10 µM | 2 µM | 0.00% | 0.21% | 3.57% | 15.84% | improved significantly | 
8 | CC(C)C[C@@H]1NC(=O)[C@H](CCCN)N(N)C(=O)[C@H](C(C)C)NC(=O)[C@@H]2CCCN2C(=O)[C@@H](Cc2ccccc2)N(N)C(=O)[C@H](CC(C)C)NC(=O)[C@H](CCCN)N(N)C(=O)[C@H](C(C)C)NC(=O)[C@@H]2CCCN2C(=O)[C@@H](Cc2ccccc2)NC1=O [Compound 8] (cyclo(L[dF]PV[Orn(Nα-NH2)]L[X1]PV[Orn(Nα-NH2)])) | 6 µM | >50 µM | 2 µM | 12 µM | 2 µM | 0.00% | 0.88% | 2.91% | 15.07% |  | 
9 | CC(C)C[C@@H]1NC(=O)[C@H](CCCN)N(N)C(=O)[C@H](C(C)C)NC(=O)[C@@H]2CCCN2C(=O)[C@@H](Cc2ccccc2)N(N)C(=O)[C@H](CC(C)C)NC(=O)[C@H](CCCN)N(N)C(=O)[C@H](C(C)C)NC(=O)[C@@H]2CCCN2C(=O)[C@@H](Cc2ccccc2)N(N)C1=O [Compound 9] (cyclo(L[X1]PV[Orn(Nα-NH2)]L[X1]PV[Orn(Nα-NH2)])) | 5 µM | >50 µM | 2 µM | 15 µM | 2 µM | 0.00% | 2.75% | 6.19% | 25.01% |  | exception

Source: patent US10730913B1, “Antimicrobial analogues of gramicidin S” (priority 2018, dated 2020)
